System: ATP Citrate Lyase (ACL)
Assay: Western blot of ATP citrate lyase levels in normal and cancer cells
Type: cell-based, human
Method: The whole cell pellets were resuspended one at a time in 1 mL of C7 buffer and transferred to labeled 15 mL tubes. The samples were then sonicated in the cold room on ice using 6 sonic pulses with the setting at #14. The samples were spun for a short time to 2500 g after sonication and the samples transferred to 2 ml tubes. The pH was verified of each sample (pH should be 9.0) using the foam remaining in the […] sample tubes.
After transfer each of the blots was placed in between 2 Whatman Filter papers and dried for 15-20 minutes. After drying the blots were labeled with the date, the type of samples and either blot 1 or blot 2 using a HB pencil. The molecular weight markers were outlined with the pencil and with single lines for the blue and a doublet for the colored markers. The blots were activated with methanol for 5 seconds, washed with water for 5 minutes, and TBST for 15 minutes. The blots were blocked for 1 hour with 5% blocking reagent in TBS-T at room temperature and then washed 3 times with TBS-T (1×-15′; 2×5′ each). Blot 1 was probed with the primary antibody for IDH1 (Cell Signaling #3997) in TBST with 5% BSA (at 1:1000 dilutions) and blot 2 with the rabbit polyclonal antibody for ATP Citrate Lyase in 5% BSA (Cell Signaling #4332) at 1:1000 dilution by incubation overnight at 4 deg C. with shaking. After the overnight incubation with primary antibodies, the blots were washed 3 times with TBS-T (1×-15′; 2×5′ each) and probed with the secondary antibody (antirabbit; 1:10,000 dilution) for 1 h on the orbital tilting shaker at room temperature. After 1 h of incubation with secondary antibodies, the blots were washed 3 times with TBS-T (1×-15′; 2×5′ each) and then incubated with ECF reagent for 5 mins and then each blot scanned with 5100 Fuji Laser scanner at 25 uM resolution, 16 bit, green laser, at 400V and at 500 V.
The samples were processed and run on a 4-12% Bis-Tris Novex NuPAGE gel as described above. The gels were run, transferred and stained essentially as described above.
The Isocitrate dehydrogenase blot was stripped by incubating for 30 minutes with methanol, followed by two 10 minute washes with TBS-T, then 30 minutes of incubation with stripping buffer at 50 deg C., and followed by two washes with 100 ml or more of TBS-T for 30′ each. The blot was scanned in laser scanner to check for complete stripping. The blot was activated with methanol for 5 seconds, washed with water for 5 minutes, and TBST for 15 minutes. The blot was blocked for 1 hour with 5% blocking reagent in TBS-T at room temperature and then washed 3 times with TBS-T (1×-15′; 2×5′ each). This was then probed with the rabbit polyclonal antibody for ATP Citrate Lyase in 5% BSA (Cell Signaling #4332) at 1:1000 dilution overnight at 4 deg C. with shaking. After the overnight incubation with primary antibody for ATP Citrate Lyase, the membrane was washed 3 times with TBS-T (1×-15′; 2×5′ each) and probed with the secondary antibody (antirabbit; 1:10,000 dilution) for 1 h on the orbital tilting shaker at room temperature. After 1 h of incubation with secondary antibodies, the blot was washed 3 times with TBS-T (1×-15′; 2×5′ each) and then incubated with ECF reagent for 5 minutes and then each blot scanned with 5100 Fuji Laser scanner at 25 uM resolution, 16 bit, green laser, at 400V and at 500 V.
In this experiment (western blot experiment 3), and in all of the experiments described below in this Example (i.e., western blot experiments 4 through 9), the cells were additionally treated with either 5 mM glucose (“5G”) or 22 mM glucose (“22G”). The samples derived from the cells were processed and run on a 4-12% Bis-Tris Novex NuPAGE gel as described above. The gels were run, transferred and stained essentially as described above.
The levels of IDH1, ATP citrate lyase and actin levels were determined by probing the blots with primary antibodies for IDH1, ATP citrate lyase and actin, essentially as described above.

Compound: COC1=C(OC)C(=O)C(C/C=C(\C)CC/C=C(\C)CC/C=C(\C)CC/C=C(\C)CC/C=C(\C)CC/C=C(\C)CC/C=C(\C)CC/C=C(\C)CC/C=C(\C)CCC=C(C)C)=C(C)C1=O [Q10, Coenzyme Q10]
- ATP Citrate Lysase ~kd band Normalized Intensity (HASMC vs. HepG2) (HASMC, 5g48-50): 23341
- ATP Citrate Lysase ~kd band Normalized Intensity (HASMC vs. PACA2) (HASMC, 5g48-50): 12056
- ATP Citrate Lysase ~kd band Normalized Intensity (HASMC vs. HepG2) (HASMC, 5g48-100): 25544
- ATP Citrate Lysase ~kd band Normalized Intensity (HASMC vs. PACA2) (HASMC, 5g48-100): 15265
- ATP Citrate Lysase ~kd band Normalized Intensity (HASMC vs. HepG2) (HASMC, 22G48-50): 21439
- ATP Citrate Lysase ~kd band Normalized Intensity (HASMC vs. PACA2) (HASMC, 22G48-50): 15857
- ATP Citrate Lysase ~kd band Normalized Intensity (HASMC vs. HepG2) (HASMC, 22G48-100): 19491
- ATP Citrate Lysase ~kd band Normalized Intensity (HASMC vs. PACA2) (HASMC, 22G48-100): 13892
- ATP Citrate Lysase ~kd band Normalized Intensity (HASMC vs. HepG2) (HepG2, 5g48-50): 24106
- ATP Citrate Lysase ~kd band Normalized Intensity (HASMC vs. HepG2) (HepG2, 5g48-100): 22463
- ATP Citrate Lysase ~kd band Normalized Intensity (HASMC vs. HepG2) (HepG2, 22G48-50): 31235
- ATP Citrate Lysase ~kd band Normalized Intensity (HASMC vs. HepG2) (HepG2, 22G48-100): 50588
- ATP Citrate Lysase ~kd band Normalized Intensity (HASMC vs. PACA2) (PACA2, 5g48-50): 8027
- ATP Citrate Lysase ~kd band Normalized Intensity (HASMC vs. PACA2) (PACA2, 5g48-100): 4942
- ATP Citrate Lysase ~kd band Normalized Intensity (HASMC vs. PACA2) (PACA2, 22G48-50): 9537
- ATP Citrate Lysase ~kd band Normalized Intensity (HASMC vs. PACA2) (PACA2, 22G48-100): 14901

From patent US9205064B2, “Methods for the diagnosis of oncological disorders using epimetabolic shifters, multidimensional intracellular molecules, or environmental influencers” (Berg LLC, priority 2009, dated 2015)
